Experimental data: ChEMBL document CHEMBL5625242, “Discovery of brain permeable 2-Azabicyclo[2.2.2]octane sulfonamides as a novel class of presenilin-1 selective γ-secretase inhibitors” (Eur J Med Chem, 2023)
Values after ≈ are worked out from the molar mass of the structure shown. Blank lines part the entries; values can stand above or below the molecule they belong to.

Experiments:
MEF = assay: Inhibition of human PSEN1/APH1B expressed in MEF cells with Psen1/2 double knockout/Aph1ABC triple knockout at 10 uM by ELISA relative to control; format: cell-based
Cytochrome P450 2C9 = Cytochrome P450 2C9 (Homo sapiens, UniProt P11712); assay: Inhibition of human CYP2C9 using tolbutamide as substrate by fluorescence based assay; format: ADME
[1] = molecular target: Voltage-gated inwardly rectifying potassium channel KCNH2 (Homo sapiens, UniProt Q12809); assay: Inhibition of hERG; format: toxicity
[2] = Kinetic solubility of compound at pH 4; format: physicochemical; conditions: buffer, read-out: Kinetic_solubility
[3] = Inhibition of human PSEN1/APH1A expressed in MEF cells with Psen1/2 double knockout/Aph1ABC triple knockout by ELISA; format: cell-based
sodium channel = assay: Inhibition of rat sodium channel; format: toxicity
[4] = Inhibition of human PSEN2/APH1A expressed in MEF cells with Psen1/2 double knockout/Aph1ABC triple knockout by ELISA; format: cell-based
[5] = Metabolic stability in mouse liver microsomes assessed as intrinsic clearance; format: ADME, Microsome
[6] = Free fraction in rat brain homogenate at 5 uM incubated for 5 hrs by HPLC-MS/MS analysis; format: ADME, tissue-based
[7] = Protein binding in human plasma assessed as free fraction at 5 uM incubated for 4.5 hrs by HPLC analysis; format: ADME, cell-free
Cytochrome P450 3A4 = Cytochrome P450 3A4 (Homo sapiens, UniProt P08684); assay: Inhibition of human CYP3A4 using midazolam as substrate by fluorescence based assay; format: ADME
human MDR1 [8] = assay: Efflux ratio of apparent permeability basal to apical side over apical to basal side in MDCK cells transfected with human MDR1 at 5 uM by LC-MS/MS analysis; format: ADME, cell-based, Canis lupus familiaris; conditions: dog
Cytochrome P450 1A2 = molecular target: T1, Cytochrome P450 1A2 (Homo sapiens, UniProt P05177); assay: Inhibition of human CYP1A2 using phenacetin as substrate by fluorescence based assay; format: ADME
T1 sequence (P05177 whole entry): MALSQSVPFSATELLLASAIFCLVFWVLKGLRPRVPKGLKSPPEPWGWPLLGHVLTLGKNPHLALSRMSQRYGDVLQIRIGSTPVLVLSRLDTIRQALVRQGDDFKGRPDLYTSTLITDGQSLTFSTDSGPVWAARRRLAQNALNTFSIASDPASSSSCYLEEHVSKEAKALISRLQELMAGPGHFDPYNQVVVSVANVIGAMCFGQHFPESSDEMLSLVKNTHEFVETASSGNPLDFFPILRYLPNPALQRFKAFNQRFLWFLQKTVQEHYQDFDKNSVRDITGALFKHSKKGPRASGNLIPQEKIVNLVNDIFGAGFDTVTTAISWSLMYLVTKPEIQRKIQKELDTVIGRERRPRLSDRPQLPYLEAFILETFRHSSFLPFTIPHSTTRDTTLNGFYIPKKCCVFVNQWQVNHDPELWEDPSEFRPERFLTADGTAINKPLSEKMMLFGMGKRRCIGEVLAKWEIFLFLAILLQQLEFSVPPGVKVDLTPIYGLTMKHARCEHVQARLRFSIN

[9] = Kinetic solubility of compound at pH 2; format: physicochemical; conditions: buffer, read-out: Kinetic_solubility
[10] = Unbound drug concentration in Swiss mouse plasma at 2.5 mg/kg, iv measured at 5 mins post-dose; format: ADME, organism-based; conditions: in vivo
[11] = Drug concentration in Swiss mouse brain at 2.5 mg/kg, iv measured at 5 mins post-dose; format: ADME, organism-based; conditions: read-out: Ct
Cytochrome P450 2C8 = molecular target: T2, Cytochrome P450 2C8 (Homo sapiens, UniProt P10632); assay: Inhibition of human CYP2C8 using amodiaquine as substrate by fluorescence based assay; format: ADME
T2 sequence (P10632 whole entry): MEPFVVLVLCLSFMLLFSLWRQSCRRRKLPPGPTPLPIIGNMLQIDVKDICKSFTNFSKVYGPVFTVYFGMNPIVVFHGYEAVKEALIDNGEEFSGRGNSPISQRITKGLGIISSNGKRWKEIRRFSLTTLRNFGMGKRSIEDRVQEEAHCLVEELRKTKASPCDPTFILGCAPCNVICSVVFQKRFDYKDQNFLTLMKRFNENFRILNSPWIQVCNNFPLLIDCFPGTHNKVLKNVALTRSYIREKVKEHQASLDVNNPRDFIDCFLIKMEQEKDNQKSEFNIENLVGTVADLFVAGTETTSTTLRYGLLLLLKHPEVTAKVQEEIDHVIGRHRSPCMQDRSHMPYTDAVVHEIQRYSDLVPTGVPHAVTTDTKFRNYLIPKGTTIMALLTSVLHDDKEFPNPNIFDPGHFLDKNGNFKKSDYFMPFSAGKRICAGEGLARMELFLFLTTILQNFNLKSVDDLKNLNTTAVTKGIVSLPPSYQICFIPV

[12] = Ratio of drug concentration in brain to plasma of Swiss mouse at 2.5 mg/kg, iv measured at 5 mins post-dose; format: ADME, organism-based; conditions: read-out: BPR
[13] = Ratio of unbound drug concentration in brain to plasma in Swiss mouse at 2.5 mg/kg, iv measured at 5 mins post-dose; format: ADME, organism-based; conditions: read-out: K(p,uu,brain)
[14] = Drug concentration in Swiss mouse plasma at 2.5 mg/kg, iv measured at 5 mins post-dose; format: ADME, organism-based
calcium channel = assay: Inhibition of rat calcium channel; format: toxicity
[15] = Metabolic stability in human liver microsomes assessed as intrinsic clearance; format: ADME, Microsome
Cytochrome P450 2C19 = Cytochrome P450 2C19 (Homo sapiens, UniProt P33261); assay: Inhibition of human CYP2C19 using S-mephenytoin as substrate by fluorescence based assay; format: ADME
human MDR1 [16] = assay: Apparent permeability across apical to basal side in MDCK cells transfected with human MDR1 at 5 uM by LC-MS/MS analysis; format: ADME, cell-based, Canis lupus familiaris; conditions: dog
Cytochrome P450 2D6 = Cytochrome P450 2D6 (Homo sapiens, UniProt P10635); assay: Inhibition of human CYP2D6 using dextrometorphan as substrate by fluorescence based assay; format: ADME
[17] = Protein binding in mouse plasma assessed as free fraction at 5 uM incubated for 4.5 hrs by HPLC analysis; format: ADME, cell-free
[18] = Inhibition of human PSEN2/APH1B expressed in MEF cells with Psen1/2 double knockout/Aph1ABC triple knockout by ELISA; format: cell-based
[19] = Inhibition of human PSEN1/APH1B expressed in MEF cells with Psen1/2 double knockout/Aph1ABC triple knockout by ELISA; format: cell-based
[20] = Kinetic solubility of compound at pH 7.4; format: physicochemical; conditions: buffer, read-out: Kinetic_solubility
Homo sapiens [21] = species: Homo sapiens; assay: Selectivity ratio of IC50 for human PSEN1/APH1A expressed in MEF cells with Psen1/2 double knockout/Aph1ABC triple knockout to IC50 for human PSEN1/APH1B expressed in MEF cells with Psen1/2 double knockout/Aph1ABC triple knockout; format: cell-based
Homo sapiens [22] = species: Homo sapiens; assay: Selectivity ratio of IC50 for human PSEN2/APH1B expressed in MEF cells with Psen1/2 double knockout/Aph1ABC triple knockout to IC50 for human PSEN1/APH1B expressed in MEF cells with Psen1/2 double knockout/Aph1ABC triple knockout; format: cell-based
Homo sapiens [23] = species: Homo sapiens; assay: Selectivity ratio of IC50 for human PSEN2/APH1A expressed in MEF cells with Psen1/2 double knockout/Aph1ABC triple knockout to IC50 for human PSEN1/APH1B expressed in MEF cells with Psen1/2 double knockout/Aph1ABC triple knockout; format: cell-based
[24] = liver microsomes, read-out: CLH

Sequence of Cytochrome P450 3A4 (P08684 whole entry): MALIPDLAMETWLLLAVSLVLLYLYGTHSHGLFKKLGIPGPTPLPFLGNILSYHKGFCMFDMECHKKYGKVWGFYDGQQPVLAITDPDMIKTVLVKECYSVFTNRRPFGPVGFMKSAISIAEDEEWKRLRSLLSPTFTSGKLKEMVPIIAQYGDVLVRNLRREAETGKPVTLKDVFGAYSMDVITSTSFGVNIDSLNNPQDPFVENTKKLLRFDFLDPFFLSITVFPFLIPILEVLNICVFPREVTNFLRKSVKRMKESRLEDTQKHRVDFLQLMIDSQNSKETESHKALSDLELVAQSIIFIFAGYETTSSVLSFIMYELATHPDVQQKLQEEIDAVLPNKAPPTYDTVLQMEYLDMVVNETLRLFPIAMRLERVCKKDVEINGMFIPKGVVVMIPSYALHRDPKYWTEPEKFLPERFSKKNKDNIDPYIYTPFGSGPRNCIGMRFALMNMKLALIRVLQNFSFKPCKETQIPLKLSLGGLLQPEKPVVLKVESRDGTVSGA
Sequence of Voltage-gated inwardly rectifying potassium channel KCNH2 (Q12809 whole entry): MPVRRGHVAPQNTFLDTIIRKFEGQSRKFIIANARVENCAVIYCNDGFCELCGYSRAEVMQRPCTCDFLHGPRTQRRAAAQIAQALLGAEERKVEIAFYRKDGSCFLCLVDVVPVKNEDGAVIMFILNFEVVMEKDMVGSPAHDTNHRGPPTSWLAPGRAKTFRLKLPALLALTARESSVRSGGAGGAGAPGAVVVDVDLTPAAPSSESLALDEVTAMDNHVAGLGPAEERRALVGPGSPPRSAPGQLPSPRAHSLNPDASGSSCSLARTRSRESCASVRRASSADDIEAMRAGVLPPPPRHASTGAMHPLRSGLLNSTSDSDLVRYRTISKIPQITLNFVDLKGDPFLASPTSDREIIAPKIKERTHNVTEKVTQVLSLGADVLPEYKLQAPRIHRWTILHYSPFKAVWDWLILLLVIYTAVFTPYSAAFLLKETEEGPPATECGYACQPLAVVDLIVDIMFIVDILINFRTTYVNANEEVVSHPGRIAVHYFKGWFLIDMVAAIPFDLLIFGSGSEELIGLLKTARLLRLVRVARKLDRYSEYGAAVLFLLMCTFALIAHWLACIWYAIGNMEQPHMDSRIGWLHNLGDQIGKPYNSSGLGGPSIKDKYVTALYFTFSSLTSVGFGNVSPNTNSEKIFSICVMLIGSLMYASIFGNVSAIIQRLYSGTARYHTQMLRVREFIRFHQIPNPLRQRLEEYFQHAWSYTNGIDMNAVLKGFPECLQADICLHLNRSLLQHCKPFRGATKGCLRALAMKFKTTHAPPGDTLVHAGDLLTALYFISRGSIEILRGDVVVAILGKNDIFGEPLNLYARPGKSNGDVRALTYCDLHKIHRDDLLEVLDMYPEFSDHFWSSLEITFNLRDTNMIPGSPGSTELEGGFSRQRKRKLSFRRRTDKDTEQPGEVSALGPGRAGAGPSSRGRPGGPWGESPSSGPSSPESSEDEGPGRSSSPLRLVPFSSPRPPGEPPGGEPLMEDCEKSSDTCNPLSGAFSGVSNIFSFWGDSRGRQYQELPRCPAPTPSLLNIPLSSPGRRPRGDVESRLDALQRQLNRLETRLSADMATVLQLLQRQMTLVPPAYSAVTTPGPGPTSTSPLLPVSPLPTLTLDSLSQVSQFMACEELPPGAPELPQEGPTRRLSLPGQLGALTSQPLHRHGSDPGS
Sequence of Cytochrome P450 2C9 (P11712 whole entry): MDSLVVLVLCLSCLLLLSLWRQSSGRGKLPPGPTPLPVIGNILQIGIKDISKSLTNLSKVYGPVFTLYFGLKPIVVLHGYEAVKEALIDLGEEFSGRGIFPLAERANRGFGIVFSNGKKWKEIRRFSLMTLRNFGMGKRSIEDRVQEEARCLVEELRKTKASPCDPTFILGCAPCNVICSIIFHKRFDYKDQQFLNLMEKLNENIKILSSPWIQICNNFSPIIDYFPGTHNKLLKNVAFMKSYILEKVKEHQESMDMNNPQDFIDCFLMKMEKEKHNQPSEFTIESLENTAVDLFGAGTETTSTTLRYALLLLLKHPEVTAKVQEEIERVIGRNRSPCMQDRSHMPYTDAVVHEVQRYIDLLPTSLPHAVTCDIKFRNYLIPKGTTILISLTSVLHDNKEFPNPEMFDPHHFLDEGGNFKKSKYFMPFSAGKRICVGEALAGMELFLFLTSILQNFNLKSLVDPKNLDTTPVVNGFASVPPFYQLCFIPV
Sequence of Cytochrome P450 2C19 (P33261 whole entry): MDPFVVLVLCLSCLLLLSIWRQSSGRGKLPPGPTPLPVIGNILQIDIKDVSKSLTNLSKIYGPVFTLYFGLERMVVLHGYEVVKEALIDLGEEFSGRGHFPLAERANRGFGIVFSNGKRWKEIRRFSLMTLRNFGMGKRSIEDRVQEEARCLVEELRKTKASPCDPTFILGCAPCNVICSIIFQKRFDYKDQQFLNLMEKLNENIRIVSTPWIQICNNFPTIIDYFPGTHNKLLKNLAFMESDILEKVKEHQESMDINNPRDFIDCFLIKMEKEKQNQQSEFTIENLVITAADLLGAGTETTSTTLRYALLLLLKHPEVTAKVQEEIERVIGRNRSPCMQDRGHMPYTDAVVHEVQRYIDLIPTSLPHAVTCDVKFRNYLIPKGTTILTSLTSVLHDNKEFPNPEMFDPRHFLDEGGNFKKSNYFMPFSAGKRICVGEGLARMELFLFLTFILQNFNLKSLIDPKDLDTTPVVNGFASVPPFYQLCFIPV
Sequence of Cytochrome P450 2D6 (P10635 whole entry): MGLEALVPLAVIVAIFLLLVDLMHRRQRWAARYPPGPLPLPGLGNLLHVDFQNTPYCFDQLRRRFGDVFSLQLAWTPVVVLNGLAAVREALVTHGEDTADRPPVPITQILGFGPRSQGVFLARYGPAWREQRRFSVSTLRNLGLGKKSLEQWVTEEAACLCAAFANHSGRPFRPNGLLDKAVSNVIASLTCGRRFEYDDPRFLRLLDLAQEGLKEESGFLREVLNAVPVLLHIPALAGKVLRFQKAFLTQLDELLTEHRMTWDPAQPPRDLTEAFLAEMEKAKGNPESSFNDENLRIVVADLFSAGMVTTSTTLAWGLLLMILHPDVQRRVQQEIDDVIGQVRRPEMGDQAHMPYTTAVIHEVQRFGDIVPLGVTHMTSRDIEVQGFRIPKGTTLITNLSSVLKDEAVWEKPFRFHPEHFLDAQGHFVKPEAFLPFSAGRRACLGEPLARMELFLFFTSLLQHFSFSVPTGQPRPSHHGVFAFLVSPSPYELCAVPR

Compound: O=C1C[C@@H]2CC[C@H]1[C@H](c1cc(F)ccc1F)N2S(=O)(=O)c1ccc(Cl)cc1
- inhibition (MEF): 45%

Compound: O=C1C[C@@H]2CC[C@H]1[C@@H](c1ccc(F)c(F)c1)N2S(=O)(=O)c1ccc(Cl)cc1 (racemic)
- IC50 [3]: > 5370 nM
- IC50 [4]: > 10000 nM
- Ratio IC50 (Homo sapiens [21]): > 3
- IC50 [18]: > 10000 nM
- IC50 [19]: 1120 nM

Second part, led by results:

- IC50 (Cytochrome P450 2C9): > 10000 nM
- solubility kinetic [2]: 13 µM (≈ 5.25 µg/mL)
- IC50 [3]: 72 nM
- IC50 [4]: 1230 nM
- CLH ([5]; microsomes): 110 µL/min/mg
- fraction unbound at 5 h, 5 µM [6]: 0.119
- fraction unbound at 4.5 h, 5 µM [7]: 0.156
- IC50 (Cytochrome P450 3A4): > 10000 nM
- efflux ratio at 5 µM (human MDR1 [8]): 32.3
- IC50 (Cytochrome P450 1A2): > 10000 nM
- solubility kinetic [9]: 13 µM (≈ 5.25 µg/mL)
- Cp(f) [10]: 63.5 ng/mL
- concentration at 5 min [11]: 363 ng/g
- IC50 (Cytochrome P450 2C8): > 10000 nM
- Kp at 5 min [12]: 0.5
- Kp uu at 5 min [13]: 0.68
- concentration at 5 min [14]: 731 ng/mL
- CLH ([15]; microsomes): 78.4 µL/min/mg
- IC50 (Cytochrome P450 2C19): > 10000 nM
- Papp A→B at 5 µM (human MDR1 [16]): 2.5 ×10⁻⁶ cm/s
- IC50 (Cytochrome P450 2D6): > 10000 nM
- fraction unbound at 4.5 h, 5 µM [17]: 0.0869
- IC50 [18]: 776 nM
- IC50 [19]: 12.9 nM
- solubility kinetic [20]: 7 µM (≈ 2.83 µg/mL)
Compound: N#Cc1ccc([C@@H]2[C@@H]3CC[C@@H](C[C@@H]3O)N2S(=O)(=O)c2ccc(Cl)cc2)cn1
- IC50 [1]: > 10000 nM
- IC50 (sodium channel): > 10000 nM
- IC50 (calcium channel): > 10000 nM

- IC50 [3]: 67 nM
- IC50 [4]: 741 nM
- microsomal CLint [5, 24]: 118 µL/min/mg
- microsomal CLint [15, 24]: 111 µL/min/mg
- IC50 [18]: 2180 nM
- IC50 [19]: 12 nM
Compound: N#Cc1ccc([C@@H]2[C@@H]3CC[C@@H](C[C@@H]3O)N2S(=O)(=O)c2ccc(Cl)cc2)cn1 (racemic)

- IC50 [3]: 316 nM
- IC50 [4]: > 10000 nM
- IC50 [18]: > 5000 nM
- IC50 [19]: 34 nM
Compound: O=C1C[C@@H]2CC[C@H]1[C@@H](c1ccc(C(F)(F)F)cc1)N2S(=O)(=O)c1ccc(Cl)cc1 (racemic)
- Ratio IC50 (Homo sapiens [21]): 9
- Ratio IC50 (Homo sapiens [22]): > 150
- Ratio IC50 (Homo sapiens [23]): > 150

- IC50 [3]: 6.9 nM
- IC50 [4]: 147 nM
- IC50 [18]: 257 nM
- IC50 [19]: 2.4 nM
Compound: N#Cc1ccc([C@@H]2[C@@H]3CC[C@@H](C[C@@H]3O)N2S(=O)(=O)c2ccc(Cl)cc2)c(F)c1 (racemic)
- Ratio IC50 (Homo sapiens [21]): 2
- Ratio IC50 (Homo sapiens [22]): 100
- Ratio IC50 (Homo sapiens [23]): 40
